In patent publication US8481567B2, “Sigma receptor compounds” (Laboratorios del Dr. Esteve, S.A., priority 2006, dated 2013):

What was measured:
sigma-1 site = sigma-1 site (Homo sapiens, UniProt Q99720); settings: statement in words, background section; cited from earlier work
sigma-2 site = sigma-2 site (Homo sapiens, UniProt Q5BJF2); settings: statement in words, background section; cited from earlier work
Sequence of sigma-2 site (Q5BJF2 whole entry): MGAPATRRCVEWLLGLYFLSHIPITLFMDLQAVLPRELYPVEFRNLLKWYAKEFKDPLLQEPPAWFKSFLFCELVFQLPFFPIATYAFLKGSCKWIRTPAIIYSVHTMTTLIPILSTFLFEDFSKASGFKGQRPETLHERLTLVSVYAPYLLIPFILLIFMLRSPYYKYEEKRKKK

Sequence of sigma-1 site (Q99720 whole entry): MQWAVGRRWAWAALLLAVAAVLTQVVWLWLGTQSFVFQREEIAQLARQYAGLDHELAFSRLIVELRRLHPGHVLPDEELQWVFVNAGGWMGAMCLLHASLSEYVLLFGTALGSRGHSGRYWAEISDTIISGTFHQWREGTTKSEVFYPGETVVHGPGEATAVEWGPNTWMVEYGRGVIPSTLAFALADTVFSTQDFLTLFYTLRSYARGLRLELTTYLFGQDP

| Molecule | melting point | affinity for the sigma-1 site (sigma-1 site) | affinity for the sigma-2 site (sigma-2 site) |
| --- | --- | --- | --- |
| Cn1ccc2c1CCCC2CCN1CCC(O)(c2ccc(Cl)cc2)CC1.O=C(O)C(=O)O (stereo not shown) | 154 to 155 °C | – | – |
| Cn1ccc2c1CCCC2CCN1CCC(c2ccccc2)CC1.O=C(O)C(=O)O (stereo not shown) | 86 to 90 °C | – | – |
| SKF 10047 | – | nanomolar | micromolar |
